Data published in patent US9670227B2, “Thienopyrimidine derivatives, a process for their preparation and pharmaceutical compositions containing them” (LES LABORATOIRES SERVIER, priority 2013, dated 2017).

Legend:
Mcl-1 protein = Mcl-1 protein (UniProtKB primary accession number: Q07820) (Homo sapiens, UniProt Q07820); test: Inhibition of Mcl-1 by fluorescence polarisation, Method 1; assay type: binding; details: fluorescence polarisation test; Method 2 values are underlined in the patent (underlining not visible here); read-out: IC50 (M) Mcl-1 FP
Sequence of Mcl-1 protein (Q07820 whole entry): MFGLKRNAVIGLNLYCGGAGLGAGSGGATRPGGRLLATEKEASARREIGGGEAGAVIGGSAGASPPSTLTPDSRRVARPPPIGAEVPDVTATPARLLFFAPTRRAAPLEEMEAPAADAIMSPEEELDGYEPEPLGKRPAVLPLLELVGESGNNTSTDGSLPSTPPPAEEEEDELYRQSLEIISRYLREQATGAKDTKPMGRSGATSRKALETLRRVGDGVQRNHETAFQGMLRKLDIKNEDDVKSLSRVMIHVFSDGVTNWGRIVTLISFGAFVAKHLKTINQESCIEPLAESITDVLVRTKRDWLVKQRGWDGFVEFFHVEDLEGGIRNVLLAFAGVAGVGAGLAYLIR
Outline: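 Buffer of 10 mM HEPES pH 7.4 with 150 mM NaCl and 0.05% Tween 20 held 5 nM Mcl-1 and 1 nM fluorescein-tagged ligand (final). Compounds were tested as 11-point serial dilutions at 5% final DMSO, and binding was read by FP.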

[1] = system: H929 multiple myeloma tumour line; test: In vitro cytotoxicity, Microculture Tetrazolium Assay; assay type: cell-based; details: Homo sapiens, NCI-H929, 48 h, H929 cells, 48 hours exposure, MTT; read-out: IC50 (μM) MTT H929
Protocol: The cytotoxicity studies were carried out on the H929 multiple myeloma tumour line.
The cells are distributed onto microplates and exposed to the test compounds for 48 hours.

| Structure (SMILES) | IC50 (Mcl-1 protein) [M] | IC50 [1] [µM] |
| --- | --- | --- |
| Cc1c(-c2c(-c3ccco3)sc3ncnc(OC(Cc4ccccc4OCc4ccnn4-c4ccccc4)C(=O)O)c23)ccc(OCCN2CCN(C)CC2)c1Cl [Example 263, (2R)-2-{[(5Sa)-5-{3-chloro-2-methyl-4-[2-(4-methylpiperazin-1-yl)ethoxy]phenyl}-6-(furan-2-yl)thieno[2,3-d]pyrimidin-4-yl]oxy}-3-{2-[(1-phenyl-1H-pyrazol-5-yl)methoxy]phenyl}propanoic acid] | 2e-09 | 0.126 |
| CCn1nccc1COc1ccccc1CC(Oc1ncnc2sc(-c3ccco3)c(-c3ccc(OCCN4CCN(C)CC4)c(Cl)c3C)c12)C(=O)O [Example 264, (2R)-2-{[(5Sa)-5-{3-chloro-2-methyl-4-[2-(4-methylpiperazin-1-yl)ethoxy]phenyl}-6-(furan-2-yl)thieno[2,3-d]pyrimidin-4-yl]oxy}-3-{2-[(1-ethyl-1H-pyrazol-5-yl)methoxy]phenyl}propanoic acid] | 9.1e-09 | 0.034 |
| Cc1c(-c2c(-c3ccco3)sc3ncnc(OC(Cc4ccccc4OCC4CCO4)C(=O)O)c23)ccc(OCCN2CCN(C)CC2)c1Cl [Example 266, (2R)-2-{[(5Sa)-5-{3-chloro-2-methyl-4-[2-(4-methylpiperazin-1-yl)ethoxy]phenyl}-6-(furan-2-yl)thieno[2,3-d]pyrimidin-4-yl]oxy}-3-[2-(oxetan-2-ylmethoxy)phenyl]propanoic acid] | 5.7e-09 | 0.093 |
| Cc1c(-c2c(-c3ccco3)sc3ncnc(OC(Cc4ccccc4OCc4cn(C)cn4)C(=O)O)c23)ccc(OCCN2CCN(C)CC2)c1Cl [Example 267, (2R)-2-{[(5Sa)-5-{3-chloro-2-methyl-4-[2-(4-methylpiperazin-1-yl)ethoxy]phenyl}-6-(furan-2-yl)thieno[2,3-d]pyrimidin-4-yl]oxy}-3-{2-[(1-methyl-1H-imidazol-4-yl)methoxy]phenyl}propanoic acid] | 8.8e-09 | 1.6 |
| COc1cnc(COc2ccccc2CC(Oc2ncnc3sc(-c4ccco4)c(-c4ccc(OCCN5CCN(C)CC5)c(Cl)c4C)c23)C(=O)O)cn1 [Example 270, (2R)-2-{[(5Sa)-5-{3-chloro-2-methyl-4-[2-(4-methylpiperazin-1-yl)ethoxy]phenyl}-6-(furan-2-yl)thieno[2,3-d]pyrimidin-4-yl]oxy}-3-{2-[(5-methoxypyrazin-2-yl)methoxy]phenyl}propanoic acid] | 1.2e-08 | 0.068 |

Now from value to molecule, other results behind:

| IC50 (Mcl-1 protein) [M] | Structure (SMILES) | IC50 [1] [µM] |
| --- | --- | --- |
| 8.2e-09 | Cc1cnc(COc2ccccc2CC(Oc2ncnc3sc(-c4ccco4)c(-c4ccc(OCCN5CCN(C)CC5)c(Cl)c4C)c23)C(=O)O)cn1 [Example 268, (2R)-2-{[(5Sa)-5-{3-chloro-2-methyl-4-[2-(4-methylpiperazin-1-yl)ethoxy]phenyl}-6-(furan-2-yl)thieno[2,3-d]pyrimidin-4-yl]oxy}-3-{2-[(5-methylpyrazin-2-yl)methoxy]phenyl}propanoic acid] | 0.086 |
| 1.1e-08 | Cc1c(-c2c(-c3ccco3)sc3ncnc(OC(Cc4ccccc4OCc4cnc(Cl)cn4)C(=O)O)c23)ccc(OCCN2CCN(C)CC2)c1Cl [Example 269, (2R)-2-{[(5Sa)-5-{3-chloro-2-methyl-4-[2-(4-methylpiperazin-1-yl)ethoxy]phenyl}-6-(furan-2-yl)thieno[2,3-d]pyrimidin-4-yl]oxy}-3-{2-[(5-chloropyrazin-2-yl)methoxy]phenyl}propanoic acid] | 0.069 |
| 1.6e-08 | Cc1ncc(COc2ccccc2CC(Oc2ncnc3sc(-c4ccco4)c(-c4ccc(OCCN5CCN(C)CC5)c(Cl)c4C)c23)C(=O)O)cn1 [Example 271, (2R)-2-{[(5Sa)-5-{3-chloro-2-methyl-4-[2-(4-methylpiperazin-1-yl)ethoxy]phenyl}-6-(furan-2-yl)thieno[2,3-d]pyrimidin-4-yl]oxy}-3-{2-[(2-methylpyrimidin-5-yl)methoxy]phenyl}propanoic acid] | 0.197 |
